The target in test [1] is T1, Glucagon receptor (Homo sapiens, UniProt P47871). The experiment in a line: Partial antagonist activity at human GCGR expressed in HEK293 cells assessed as inhibition of glucogon-induced cAMP production. It counts as functional, cell-based. To be noted: filed as antagonist.
Test [2] deals with T1, Glucagon receptor. Description: Displacement of 125I-glucagon from human GCGR expressed in HEK293 cells membranes incubated for 6 hrs by liquid scintillation counting method. It is filed as cell membranes, Membrane. (In a radioligand displacement assay an active substance lowers the binding of a labelled ligand.)
Test [3] concerns the target T1, Glucagon receptor. The experiment in a line: Antagonist activity at human GCGR expressed in HEK293 cells assessed as inhibition of glucogon-induced cAMP production. It counts as functional, cell-based.

The source made the active and inactive calls. The rule behind the calls is not given here. Peptide text beside a SMILES is read from it. * marks the point of attachment. Carboxymethyl = O=C(O)C*; CH2CH2COOH = O=C(O)CC*

T1 sequence (P47871 whole entry): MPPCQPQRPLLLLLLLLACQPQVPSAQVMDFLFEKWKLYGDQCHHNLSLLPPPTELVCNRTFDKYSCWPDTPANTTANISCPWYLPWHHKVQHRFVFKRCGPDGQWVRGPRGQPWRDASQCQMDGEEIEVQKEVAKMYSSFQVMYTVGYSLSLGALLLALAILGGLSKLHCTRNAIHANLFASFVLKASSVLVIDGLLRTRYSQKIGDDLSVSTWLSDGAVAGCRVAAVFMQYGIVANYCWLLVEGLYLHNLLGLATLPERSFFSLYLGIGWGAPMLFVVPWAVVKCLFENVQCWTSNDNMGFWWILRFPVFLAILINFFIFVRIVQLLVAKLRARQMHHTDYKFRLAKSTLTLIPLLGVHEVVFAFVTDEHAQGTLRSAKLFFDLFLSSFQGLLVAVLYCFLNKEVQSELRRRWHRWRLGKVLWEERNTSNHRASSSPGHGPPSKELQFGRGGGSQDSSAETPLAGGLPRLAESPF

Regarding `CSCC[C@H](NC(=O)[C@H](CC(C)C)NC(=O)[C@H](Cc1c[nH]c2ccccc12)NC(=O)[C@H](CCC(N)=O)NC(=O)[C@@H](NC(=O)[C@H](Cc1ccccc1)NC(=O)[C@H](CC(=O)O)NC(=O)[C@H](CCC(N)=O)NC(=O)[C@H](C)NC(=O)[C@H](CCCNC(=N)N)NC(=O)[C@H](CCCNC(=N)N)NC(=O)[C@H](CO)NC(=O)[C@H](CC(=O)O)NC(=O)[C@H](CC(C)C)NC(=O)[C@H](Cc1ccc(O)cc1)NC(=O)[C@H](CCCCN)NC(=O)[C@H](CO)NC(=O)[C@H](Cc1ccc(O)cc1)NC(=O)[C@H](CCCC(=O)O)NC(=O)[C@H](CO)NC(=O)[C@@H](NC(=O)[C@H](Cc1ccccc1)NC(=O)[C@@H](NC(=O)CNC(=O)[C@H](CCC(N)=O)NC(=O)[C@@H](N)CO)[C@@H](C)O)[C@@H](C)O)C(C)C)C(=O)N[C@@H](CC(N)=O)C(=O)N[C@H](C(N)=O)[C@@H](C)O`, at Glucagon receptor [1], the outcome was Active.
In the case of `CSCC[C@H](NC(=O)[C@H](CC(C)C)NC(=O)[C@H](Cc1c[nH]c2ccccc12)NC(=O)[C@H](CCC(N)=O)NC(=O)[C@@H](NC(=O)[C@H](Cc1ccccc1)NC(=O)[C@H](CC(=O)O)NC(=O)[C@H](CCC(N)=O)NC(=O)[C@H](C)NC(=O)[C@H](CCCNC(=N)N)NC(=O)[C@H](CCCNC(=N)N)NC(=O)[C@H](CO)NC(=O)[C@H](CC(=O)O)NC(=O)[C@H](CC(C)C)NC(=O)[C@H](Cc1ccc(O)cc1)NC(=O)[C@H](CCCCN)NC(=O)[C@H](CO)NC(=O)[C@H](Cc1ccc(O)cc1)NC(=O)CN(CCC(=O)O)C(=O)[C@H](CO)NC(=O)[C@@H](NC(=O)[C@H](Cc1ccccc1)NC(=O)[C@@H](NC(=O)CNC(=O)[C@H](CCC(N)=O)NC(=O)[C@@H](N)CO)[C@@H](C)O)[C@@H](C)O)C(C)C)C(=O)N[C@@H](CC(N)=O)C(=O)N[C@H](C(N)=O)[C@@H](C)O`, the outcome at Glucagon receptor [1] was Active.
For the molecule `CSCC[C@H](NC(=O)[C@H](CC(C)C)NC(=O)[C@H](Cc1c[nH]c2ccccc12)NC(=O)[C@H](CCC(N)=O)NC(=O)[C@@H](NC(=O)[C@H](Cc1ccccc1)NC(=O)[C@H](CC(=O)O)NC(=O)[C@H](CCC(N)=O)NC(=O)[C@H](C)NC(=O)[C@H](CCCNC(=N)N)NC(=O)[C@H](CCCNC(=N)N)NC(=O)[C@H](CO)NC(=O)[C@H](CC(=O)O)NC(=O)[C@H](CC(C)C)NC(=O)[C@H](Cc1ccc(O)cc1)NC(=O)[C@H](CCCCN)NC(=O)[C@H](CO)NC(=O)[C@H](Cc1ccc(O)cc1)NC(=O)C[C@H](CCC(=O)O)NC(=O)[C@H](CO)NC(=O)[C@@H](NC(=O)[C@H](Cc1ccccc1)NC(=O)[C@@H](NC(=O)CNC(=O)[C@H](CCC(N)=O)NC(=O)[C@@H](N)CO)[C@@H](C)O)[C@@H](C)O)C(C)C)C(=O)N[C@@H](CC(N)=O)C(=O)N[C@H](C(N)=O)[C@@H](C)O`, at Glucagon receptor [1], the outcome was Active.
As for `CSCC[C@H](NC(=O)[C@H](CC(C)C)NC(=O)[C@H](Cc1c[nH]c2ccccc12)NC(=O)[C@H](CCC(N)=O)NC(=O)[C@@H](NC(=O)[C@H](Cc1ccccc1)NC(=O)[C@H](CC(=O)O)NC(=O)[C@H](CCC(N)=O)NC(=O)[C@H](C)NC(=O)[C@H](CCCNC(=N)N)NC(=O)[C@H](CCCNC(=N)N)NC(=O)[C@H](CO)NC(=O)[C@H](CC(=O)O)NC(=O)[C@H](CC(C)C)NC(=O)[C@H](Cc1ccc(O)cc1)NC(=O)[C@H](CCCCN)NC(=O)[C@H](CO)NC(=O)[C@H](Cc1ccc(O)cc1)NC(=O)[C@H](CCC(=O)O)NC(=O)[C@H](CO)NC(=O)[C@@H](NC(=O)[C@@H](N)Cc1ccc(F)c(F)c1)[C@@H](C)O)C(C)C)C(=O)N[C@@H](CC(N)=O)C(=O)N[C@H](C(N)=O)[C@@H](C)O` (HELM PEPTIDE1{[N[C@@H](Cc1ccc(F)c(F)c1)C(=O)[*:2]].T.S.E.Y.S.K.Y.L.D.S.R.R.A.Q.D.F.V.Q.W.L.M.N.T.[am]}$$$$V2.0), the IC50 – broadly, the concentration that gives 50% inhibition – on Glucagon receptor [2] turned out to be 0.0367 µM; on Glucagon receptor [3], 0.192 µM.
On the same counts, the results for `CSCC[C@H](NC(=O)[C@H](CC(C)C)NC(=O)[C@H](Cc1c[nH]c2ccccc12)NC(=O)[C@H](CCC(N)=O)NC(=O)[C@@H](NC(=O)[C@H](Cc1ccccc1)NC(=O)[C@H](CC(=O)O)NC(=O)[C@H](CCC(N)=O)NC(=O)[C@H](C)NC(=O)[C@H](CCCNC(=N)N)NC(=O)[C@H](CCCNC(=N)N)NC(=O)[C@H](CO)NC(=O)[C@H](CC(=O)O)NC(=O)[C@H](CC(C)C)NC(=O)[C@H](Cc1ccc(O)cc1)NC(=O)[C@H](CCCCN)NC(=O)[C@H](CO)NC(=O)[C@H](Cc1ccc(O)cc1)NC(=O)[C@H](CCC(=O)O)NC(=O)[C@H](CO)NC(=O)[C@@H](NC(=O)[C@@H](N)Cc1ccc2ccccc2c1)[C@@H](C)O)C(C)C)C(=O)N[C@@H](CC(N)=O)C(=O)N[C@H](C(N)=O)[C@@H](C)O` (HELM PEPTIDE1{[N[C@@H](Cc1ccc2ccccc2c1)C(=O)[*:2]].T.S.E.Y.S.K.Y.L.D.S.R.R.A.Q.D.F.V.Q.W.L.M.N.T.[am]}$$$$V2.0) are 0.0952 µM and 0.0441 µM.
Consider `CSCC[C@H](NC(=O)[C@H](CC(C)C)NC(=O)[C@H](Cc1c[nH]c2ccccc12)NC(=O)[C@H](CCC(N)=O)NC(=O)[C@@H](NC(=O)[C@H](Cc1ccccc1)NC(=O)[C@H](CC(=O)O)NC(=O)[C@H](CCC(N)=O)NC(=O)[C@H](C)NC(=O)[C@H](CCCNC(=N)N)NC(=O)[C@H](CCCNC(=N)N)NC(=O)[C@H](CO)NC(=O)[C@H](CC(=O)O)NC(=O)[C@H](CC(C)C)NC(=O)[C@H](Cc1ccc(O)cc1)NC(=O)[C@H](CCCCN)NC(=O)[C@H](CO)NC(=O)[C@H](Cc1ccc(O)cc1)NC(=O)[C@H](CSCC(=O)O)NC(=O)[C@H](CO)NC(=O)[C@@H](NC(=O)[C@@H](N)Cc1ccccc1)[C@@H](C)O)C(C)C)C(=O)N[C@@H](CC(N)=O)C(=O)N[C@H](C(N)=O)[C@@H](C)O` (H-FTSC(Carboxymethyl)YSKYLDSRRAQDFVQWLMNT-NH2), for which, at Glucagon receptor [3], the half-maximal inhibitory concentration (IC50) is 0.0714 µM.
In the case of `CSCC[C@H](NC(=O)[C@H](CC(C)C)NC(=O)[C@H](Cc1c[nH]c2ccccc12)NC(=O)[C@H](CCC(N)=O)NC(=O)[C@@H](NC(=O)[C@H](Cc1ccccc1)NC(=O)[C@H](CC(=O)O)NC(=O)[C@H](CCC(N)=O)NC(=O)[C@H](C)NC(=O)[C@H](CCCNC(=N)N)NC(=O)[C@H](CCCNC(=N)N)NC(=O)[C@H](CO)NC(=O)[C@H](CC(=O)O)NC(=O)[C@H](CC(C)C)NC(=O)[C@H](Cc1ccc(O)cc1)NC(=O)[C@H](CCCCN)NC(=O)[C@H](CO)NC(=O)[C@H](Cc1ccc(O)cc1)NC(=O)[C@H](CSCCC(=O)O)NC(=O)[C@H](CO)NC(=O)[C@@H](NC(=O)[C@H](Cc1ccccc1)NC(=O)[C@@H](NC(=O)CNC(=O)[C@H](CCC(N)=O)NC(=O)[C@@H](N)CO)[C@@H](C)O)[C@@H](C)O)C(C)C)C(=O)N[C@@H](CC(N)=O)C(=O)N[C@H](C(N)=O)[C@@H](C)O`, on Glucagon receptor [1], the outcome was Active.
Consider Ac-FTSEYSKYLDSRRAQDFVQWLMNT-NH2, for which the IC50 came to 0.0371 µM on Glucagon receptor [2] and 0.13 µM at Glucagon receptor [3].
With `CSCC[C@H](NC(=O)[C@H](CC(C)C)NC(=O)[C@H](Cc1c[nH]c2ccccc12)NC(=O)[C@H](CCC(N)=O)NC(=O)[C@@H](NC(=O)[C@H](Cc1ccccc1)NC(=O)[C@H](CC(=O)O)NC(=O)[C@H](CCC(N)=O)NC(=O)[C@H](C)NC(=O)[C@H](CCCNC(=N)N)NC(=O)[C@H](CCCNC(=N)N)NC(=O)[C@H](CO)NC(=O)[C@H](CC(=O)O)NC(=O)[C@H](CC(C)C)NC(=O)[C@H](Cc1ccc(O)cc1)NC(=O)[C@H](CCCCN)NC(=O)[C@H](CO)NC(=O)[C@H](Cc1ccc(O)cc1)NC(=O)CN(CCCC(=O)O)C(=O)[C@H](CO)NC(=O)[C@@H](NC(=O)[C@H](Cc1ccccc1)NC(=O)[C@@H](NC(=O)CNC(=O)[C@H](CCC(N)=O)NC(=O)[C@@H](N)CO)[C@@H](C)O)[C@@H](C)O)C(C)C)C(=O)N[C@@H](CC(N)=O)C(=O)N[C@H](C(N)=O)[C@@H](C)O`, on Glucagon receptor [1], the outcome was Active.
Turning to `CSCC[C@H](NC(=O)[C@H](CC(C)C)NC(=O)[C@H](Cc1c[nH]c2ccccc12)NC(=O)[C@H](CCC(N)=O)NC(=O)[C@@H](NC(=O)[C@H](Cc1ccccc1)NC(=O)[C@H](CC(=O)O)NC(=O)[C@H](CCC(N)=O)NC(=O)[C@H](C)NC(=O)[C@H](CCCNC(=N)N)NC(=O)[C@H](CCCNC(=N)N)NC(=O)[C@H](CO)NC(=O)[C@H](CC(=O)O)NC(=O)[C@H](CC(C)C)NC(=O)[C@H](Cc1ccc(O)cc1)NC(=O)[C@H](CCCCN)NC(=O)[C@H](CO)NC(=O)[C@H](Cc1ccc(O)cc1)NC(=O)[C@H](CSCC(=O)O)NC(=O)[C@H](CO)NC(=O)[C@@H](NC(=O)[C@H](Cc1ccccc1)NC(=O)[C@@H](NC(=O)CNC(=O)[C@H](CCC(N)=O)NC(=O)[C@@H](N)CO)[C@@H](C)O)[C@@H](C)O)C(C)C)C(=O)N[C@@H](CC(N)=O)C(=O)N[C@H](C(N)=O)[C@@H](C)O`, the result at Glucagon receptor [1] was Active.
As to H-GTFTSEYSKYLDSRRAQDFVQWLMNT-NH2, at Glucagon receptor [3], the IC50 stood at 0.275 µM.
On the same count and under the same terms, with `CSCC[C@H](NC(=O)[C@H](CC(C)C)NC(=O)[C@H](Cc1c[nH]c2ccccc12)NC(=O)[C@H](CCC(N)=O)NC(=O)[C@@H](NC(=O)[C@H](Cc1ccccc1)NC(=O)[C@H](CC(=O)O)NC(=O)[C@H](CCC(N)=O)NC(=O)[C@H](C)NC(=O)[C@H](CCCNC(=N)N)NC(=O)[C@H](CCCNC(=N)N)NC(=O)[C@H](CO)NC(=O)[C@H](CC(=O)O)NC(=O)[C@H](CC(C)C)NC(=O)[C@H](Cc1ccc(O)cc1)NC(=O)[C@H](CCCCN)NC(=O)[C@H](CO)NC(=O)[C@H](Cc1ccc(O)cc1)NC(=O)[C@H](CSCCC(=O)O)NC(=O)[C@H](CO)NC(=O)[C@@H](NC(=O)[C@@H](N)Cc1ccccc1)[C@@H](C)O)C(C)C)C(=O)N[C@@H](CC(N)=O)C(=O)N[C@H](C(N)=O)[C@@H](C)O` (H-FTSC(CH2CH2COOH)YSKYLDSRRAQDFVQWLMNT-NH2) the figure was 0.0818 µM.
